{"source": "patent US20120053168A1", "about": "“FUSED BENZOAZEPINES AS NEURONAL NICOTINIC ACETYLCHOLINE RECEPTOR LIGANDS” (Targacept, Inc., priority 2009, published 2012)", "key": {"Rat α4β2 nAChR subtype": {"target": "T1, Rat α4β2 nAChR subtype (Rattus norvegicus, UniProt P09483+P12390)", "T1 construct": "from tissue; host or cells: rat cerebral cortex membranes (female Sprague-Dawley)", "T1 sequence (P09483 31-630)": "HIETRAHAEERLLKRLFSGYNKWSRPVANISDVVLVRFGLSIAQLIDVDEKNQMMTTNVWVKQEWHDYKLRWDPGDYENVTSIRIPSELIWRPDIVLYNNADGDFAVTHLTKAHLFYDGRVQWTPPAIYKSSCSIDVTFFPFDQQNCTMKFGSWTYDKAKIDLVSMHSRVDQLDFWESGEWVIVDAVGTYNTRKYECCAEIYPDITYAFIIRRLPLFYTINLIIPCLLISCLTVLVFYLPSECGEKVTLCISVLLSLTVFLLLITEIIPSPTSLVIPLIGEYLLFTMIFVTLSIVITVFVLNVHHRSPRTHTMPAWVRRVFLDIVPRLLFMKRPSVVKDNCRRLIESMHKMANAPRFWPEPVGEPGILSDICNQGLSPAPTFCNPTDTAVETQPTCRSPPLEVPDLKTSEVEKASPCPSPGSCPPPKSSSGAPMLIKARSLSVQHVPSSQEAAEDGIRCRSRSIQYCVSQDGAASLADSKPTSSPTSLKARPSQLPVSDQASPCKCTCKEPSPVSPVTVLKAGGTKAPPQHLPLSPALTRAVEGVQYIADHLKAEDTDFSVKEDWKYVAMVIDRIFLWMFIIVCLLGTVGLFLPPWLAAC", "T1 sequence (P12390 25-500)": "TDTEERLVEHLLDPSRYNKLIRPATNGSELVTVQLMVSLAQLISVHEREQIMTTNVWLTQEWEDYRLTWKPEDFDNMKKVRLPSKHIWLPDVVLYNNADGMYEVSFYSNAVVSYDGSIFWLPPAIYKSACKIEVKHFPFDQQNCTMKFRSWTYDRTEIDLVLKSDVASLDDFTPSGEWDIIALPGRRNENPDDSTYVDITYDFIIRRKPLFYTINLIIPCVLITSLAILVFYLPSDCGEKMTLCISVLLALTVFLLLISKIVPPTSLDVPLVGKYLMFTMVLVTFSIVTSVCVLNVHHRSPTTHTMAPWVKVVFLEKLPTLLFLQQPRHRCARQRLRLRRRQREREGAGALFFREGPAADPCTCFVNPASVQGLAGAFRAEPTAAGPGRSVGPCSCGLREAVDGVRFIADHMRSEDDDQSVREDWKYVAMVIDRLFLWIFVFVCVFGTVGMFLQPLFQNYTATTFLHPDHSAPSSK", "test": "[3H]nicotine radioligand binding, membranes from rat cortex", "method": "Preparation of membranes from rat cortex: Rats (female, Sprague-Dawley), weighing 150-250 g, were maintained on a 12 h light/dark cycle and were allowed free access to water and food supplied by PMI Nutrition International, Inc. Animals were anesthetized with 70% CO2, and then decapitated. Brains were removed and placed on an ice-cold platform. The cerebral cortex was removed and placed in 20 volumes (weight:volume) of ice-cold preparative buffer (137 mM NaCl, 10.7 mM KCl, 5.8 mM KH2PO4, 8 mM Na2HPO4, 20 mM HEPES (free acid), 5 mM iodoacetamide, 1.6 mM EDTA, pH 7.4); PMSF, dissolved in methanol to a final concentration of 100 μM, was added and the suspension was homogenized by Polytron. The homogenate was centrifuged at 18,000×g for 20 min at 4° C. and the resulting pellet was re-suspended in 20 volumes of ice-cold water. After 60 min incubation on ice, a new pellet was collected by centrifugation at 18,000×g for 20 min at 4° C. The final pellet was re-suspended in 10 volumes of buffer and stored at ˜20° C.\nOn the day of the assay, the frozen membranes were thawed and spun at 48,000×g for 20 min. The supernatant was decanted and discarded. The pellet was resuspended in Dulbecco's phosphate buffered saline (PBS, Life Technologies) pH 7.4 and homogenized with the Polytron for 6 seconds. Protein concentrations were determined using a Pierce BCA Protein Assay Kit, with bovine serum albumin as the standard (Pierce Chemical Company, Rockford, Ill.).\nAssay: Membrane preparations (approximately 50 μg for human and 200-300 μg protein for rat α4β2) were incubated in PBS (50 μL and 100 μL respectively) in the presence of competitor compound (0.01 nM to 100 μM) and 5 nM [^3H]nicotine for 2-3 hours on ice. Incubation was terminated by rapid filtration on a multi-manifold tissue harvester (Brandel, Gaithersburg, Md.) using GF/B filters presoaked in 0.33% polyethyleneimine (w/v) to reduce non-specific binding. Tissue was rinsed 3 times in PBS, pH 7.4. Scintillation fluid was added to filters containing the washed tissue and allowed to equilibrate. Filters were then counted to determine radioactivity bound to the membranes by liquid scintillation counting (2200CA Tri-Carb LSC, Packard Instruments, 50% efficiency or Wallac Trilux 1450 MicroBeta, 40% efficiency, Perkin Elmer).\nData were expressed as disintegrations per minute (DPMs). Within each assay, each point had 2-3 replicates. The replicates for each point were averaged and plotted against the log of the drug concentration. IC50, which is the concentration of the compound that produces 50% inhibition of binding, was determined by least squares non-linear regression. Ki values were calculated using the Cheng-Prussof equation (1973): […]\nwhere N is the concentration of [^3H]nicotine and Kd is the affinity of nicotine (3 nM, determined in a separate experiment)."}, "[1]": {"tested_on": "animals impaired with scopolamine", "test": "Radial Arm Maze (RAM) task, scopolamine-induced cognitive deficits", "type": "in vivo, rat", "settings": "3 mg/kg (15.1 μmol/kg) p.o.", "method": "Working memory is a cognitive domain known to be impaired in schizophrenia; the Radial Arm Maze task is commonly used to assess potential cognitive benefit derived from the test compounds. Using this assay, Compound A (7,8,9,10-tetrahydro-6H-azepino[4,5-g]quinoxaline) attenuated cognitive deficits induced by scopolamine in an animal model of working memory. Working memory was assessed in a 3 trial radial arm maze (RAM) task. The RAM task was conducted using an automated eight-arm maze (Med Associates, Inc.) The maze was located on a circular table approximately 88 cm above the floor with overhead lighting in a dedicated testing room and large, high contrast geometric shapes on the wall. […] The central platform measured 30.5 cm in diameter with eight arms (9 cm W×45.7 cm L×16.8 cm H) radiating from it. […] Activity on the maze was monitored by tracking quantitative activity (generated by infra-red beam breaks) on the computer interface and monitor screen.\nFollowing the baseline assessment on day 1 and after re-attainment of test session criterion, animals were assessed for their sensitivity to chemically-induced cognitive impairment using the muscarinic antagonist scopolamine (0.2-0.4 mg/kg; s.c.). A dose of scopolamine was determined for each animal based on the minimum dose that produced significant and reliable cognitive impairment. […]"}}}
{"smiles": "c1cnc2cc3c(cc2n1)CCNCC3", "note": "[Compound A, 7,8,9,10-tetrahydro-6H-azepino[4,5-g]quinoxaline]", "values": [{"measurement": "Ki", "setting": "Rat α4β2 nAChR subtype", "value": 17, "unit": "nM"}, {"measurement": "effect on scopolamine-induced cognitive deficits, RAM", "setting": "[1]", "value": "attenuated scopolamine-induced cognitive deficits"}]}
